Reference: ChEMBL document CHEMBL3879881, “Substituted pyrazolyl compounds for the treatment of inflammation” (2005)
pIC50: −log10 of the molar value.

Biological target: T1, Inhibitor of nuclear factor kappa-B kinase subunit beta (Homo sapiens, UniProt O14920)
T1 sequence (O14920 whole entry): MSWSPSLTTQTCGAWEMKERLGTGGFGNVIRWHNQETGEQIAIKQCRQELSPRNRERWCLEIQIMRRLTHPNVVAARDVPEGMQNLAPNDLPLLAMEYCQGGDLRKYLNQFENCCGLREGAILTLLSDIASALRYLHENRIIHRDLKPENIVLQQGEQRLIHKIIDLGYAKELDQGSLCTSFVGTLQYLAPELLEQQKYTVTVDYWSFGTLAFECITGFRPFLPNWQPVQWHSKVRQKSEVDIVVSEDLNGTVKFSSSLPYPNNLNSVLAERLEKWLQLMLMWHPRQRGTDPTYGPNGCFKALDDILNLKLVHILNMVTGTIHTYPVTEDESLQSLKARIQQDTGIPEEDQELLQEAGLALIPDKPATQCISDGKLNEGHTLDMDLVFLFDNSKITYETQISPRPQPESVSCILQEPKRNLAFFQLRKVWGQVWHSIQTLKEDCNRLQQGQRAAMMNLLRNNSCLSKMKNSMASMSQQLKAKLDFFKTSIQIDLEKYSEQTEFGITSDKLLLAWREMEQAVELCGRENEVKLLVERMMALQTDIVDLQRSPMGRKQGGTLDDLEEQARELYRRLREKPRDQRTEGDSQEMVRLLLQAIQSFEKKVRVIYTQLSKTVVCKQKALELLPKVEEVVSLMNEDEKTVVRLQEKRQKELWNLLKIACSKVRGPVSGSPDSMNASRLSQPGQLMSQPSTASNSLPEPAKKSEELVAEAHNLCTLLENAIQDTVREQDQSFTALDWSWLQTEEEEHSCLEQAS
Assay: Inhibition of human recombinant C-terminal FLAG-epitope-tagged IKK2 expressed in baculovirus using biotinylated IkappaBalpha peptide as substrate assessed as decrease in [gamma-33P]-ATP incorporation in substrate after 30 mins by scintillation counting method

Structure (SMILES) | pIC50
CN(C)CCOc1ccc(Cl)c(C(=O)Nc2ccc3c(c2)-c2c(c(C(N)=O)nn2-c2ccc4c(c2)OCO4)CC3)c1 | 5.00 to 6.00
CS(=O)(=O)c1ccc(-n2nc(C(N)=O)c3c2-c2cc(NC(=O)C4CCC4)ccc2CC3)cc1 | 5.00 to 6.00
COc1cccc(C(=O)Nc2ccc3c(c2)-c2c(c(C(N)=O)nn2-c2ccc(S(C)(=O)=O)cc2)CC3)c1 | 5.00 to 6.00
C[S+]([O-])c1ccc(Cl)c(C(=O)Nc2ccc3c(c2)-c2c(c(C(N)=O)nn2-c2ccc4c(c2)OCO4)CC3)c1 (centres undefined) | ≥ 6.00
CS(=O)(=O)c1ccc(-n2nc(C(N)=O)c3c2-c2cc(NC(=O)[C@@H](N)Cc4c[nH]cn4)ccc2CC3)cc1 | 5.00 to 6.00
CS(=O)(=O)c1ccc(-n2nc(C(N)=O)c3c2-c2cc(NC(=O)c4cnccc4Cl)ccc2CC3)cc1 | 5.00 to 6.00
Cc1nnsc1C(=O)Nc1ccc2c(c1)-c1c(c(C(N)=O)nn1-c1ccc3c(c1)OCO3)CC2 | 5.00 to 6.00
NC(=O)c1nn(-c2ccc(S(N)(=O)=O)cc2)c2c1CCc1ccc(NS(=O)(=O)c3ccccc3Cl)cc1-2 | 4.00 to 5.00
Cc1cccc(C(=O)Nc2ccc3c(c2)-c2c(c(C(N)=O)nn2-c2ccc(S(C)(=O)=O)cc2)CC3)c1 | 5.00 to 6.00
NC(=O)c1nn(-c2ccc(S(N)(=O)=O)cc2)c2c1CCc1ccc(NC(=O)c3ccccc3Br)cc1-2 | ≥ 6.00
CSc1ccccc1C(=O)Nc1ccc2c(c1)-c1c(c(C(N)=O)nn1-c1ccc(S(C)(=O)=O)cc1)CC2 | 5.00 to 6.00
Cc1cccc(S(=O)(=O)Nc2ccc3c(c2)-c2c(c(C(N)=O)nn2-c2ccc(S(N)(=O)=O)cc2)CC3)c1 | 4.00 to 5.00
CS(=O)(=O)c1ccc(-n2nc(C(N)=O)c3c2-c2cc(NC(=O)c4cc(Cl)ccc4N)ccc2CC3)cc1 | 5.00 to 6.00
NC(=O)c1nn(-c2ccc(S(N)(=O)=O)cc2)c2c1CCc1ccc(NC(=O)c3ccccc3F)cc1-2 | ≥ 6.00
CS(=O)(=O)Nc1ccc2c(c1)-c1c(c(C(N)=O)nn1-c1ccc(F)cc1)CC2 | 5.00 to 6.00
NC(=O)c1nn(-c2ccc3c(c2)OCO3)c2c1CCc1ccc(NC(=O)c3cc(Cl)ncc3Cl)cc1-2 | ≥ 6.00
CN1CCN(c2ccc(Cl)c(C(=O)Nc3ccc4c(c3)-c3c(c(C(N)=O)nn3-c3ccc(S(C)(=O)=O)cc3)CC4)c2)CC1 | > 6.00
N#Cc1cccc(C(=O)Nc2ccc3c(c2)-c2c(c(C(N)=O)nn2-c2ccc(S(N)(=O)=O)cc2)CC3)c1 | ≥ 6.00
CN(C)CC(=O)Nc1ccc(C(=O)Nc2ccc3c(c2)-c2c(c(C(N)=O)nn2-c2ccc4c(c2)OCO4)CC3)c(Cl)c1 | 5.00 to 6.00
NC(=O)c1nn(-c2ccc(S(N)(=O)=O)cc2)c2c1CCc1ccc(NC(=O)c3c(Cl)cccc3Cl)cc1-2 | ≥ 6.00
NC(=O)c1nn(-c2ccc(F)cc2)c2c1CCc1ccc(NC(=O)c3cc(Cl)ncc3Cl)cc1-2 | ≥ 6.00
Cc1ncccc1C(=O)Nc1ccc2c(c1)-c1c(c(C(N)=O)nn1-c1ccc3c(c1)OCO3)CC2 | 5.00 to 6.00
CS(=O)(=O)c1ccc(-n2nc(C(N)=O)c3c2-c2cc(NC(=O)c4cc(S(C)(=O)=O)ccc4Cl)ccc2CC3)cc1 | ≥ 6.00

Structure (SMILES) | pIC50
NC(=O)c1nn(-c2ccc3c(c2)OCO3)c2c1CCc1ccc(NC(=O)c3ccoc3)cc1-2 | 5.00 to 6.00
CS(=O)(=O)c1ccc(-n2nc(C(N)=O)c3c2-c2cc(NC(=O)Cc4ccccc4)ccc2CC3)cc1 | 5.00 to 6.00
C[S+]([O-])c1ccc(Cl)c(C(=O)Nc2ccc3c(c2)-c2c(c(C(N)=O)nn2-c2ccc(S(C)(=O)=O)cc2)CC3)c1 (centres undefined) | ≥ 6.00
NC(=O)c1nn(-c2ccc(S(N)(=O)=O)cc2)c2c1CCc1ccc(NC(=O)c3cccnc3)cc1-2 | ≥ 6.00
NC(=O)c1nn(-c2ccc(S(N)(=O)=O)cc2)c2c1CCc1ccc(NC(=O)c3cccnc3Cl)cc1-2 | ≥ 6.00
Cc1c(O)cccc1C(=O)Nc1ccc2c(c1)-c1c(c(C(N)=O)nn1-c1ccc(S(C)(=O)=O)cc1)CC2 | ≥ 6.00
Cc1ccn2c(C)c(C(=O)Nc3ccc4c(c3)-c3c(c(C(N)=O)nn3-c3ccc(S(C)(=O)=O)cc3)CC4)nc2c1 | 5.00 to 6.00
CS(=O)(=O)c1ccc(-n2nc(C(N)=O)c3c2-c2cc(NC(=O)c4cc(N=[N+]=[N-])ccc4[N+](=O)O)ccc2CC3)cc1 | ≥ 6.00
Cc1c(C(=O)Nc2ccc3c(c2)-c2c(c(C(N)=O)nn2-c2ccc(S(C)(=O)=O)cc2)CC3)cccc1[N+](=O)[O-] | 5.00 to 6.00
Cc1cccc(C(=O)Nc2ccc3c(c2)-c2c(c(C(N)=O)nn2-c2ccc(S(C)(=O)=O)cc2)CC3)c1C | 5.00 to 6.00
Cc1cccc(C(=O)Nc2ccc3c(c2)-c2c(c(C(N)=O)nn2-c2ccc(S(C)(=O)=O)cc2)CC3)c1[N+](=O)[O-] | 5.00 to 6.00
CC(=O)Oc1cccc(C(=O)Nc2ccc3c(c2)-c2c(c(C(N)=O)nn2-c2ccc(S(C)(=O)=O)cc2)CC3)c1C | 5.00 to 6.00
N#Cc1ccc(C(=O)Nc2ccc3c(c2)-c2c(c(C(N)=O)nn2-c2ccc4c(c2)OCO4)CC3)cc1 | 5.00 to 6.00
NC(=O)c1nn(-c2ccc(S(N)(=O)=O)cc2)c2c1CCc1ccc(NS(=O)(=O)c3cccc(Cl)c3)cc1-2 | 5.00 to 6.00
NC(=O)c1nn(-c2ccc(S(N)(=O)=O)cc2)c2c1CCc1ccc(NS(=O)(=O)c3cccc(Br)c3)cc1-2 | 5.00 to 6.00
C[S+]([O-])c1ccc(Cl)c(C(=O)Nc2ccc3c(c2)-c2c(c(C(N)=O)nn2-c2ccc(F)cc2)CC3)c1 (centres undefined) | ≥ 6.00
Cc1ccccc1C(=O)Nc1ccc2c(c1)-c1c(c(C(N)=O)nn1-c1ccc3c(c1)OCO3)CC2 | 5.00 to 6.00
CSc1ncc(Cl)c(C(=O)Nc2ccc3c(c2)-c2c(c(C(N)=O)nn2-c2ccc4c(c2)OCO4)CC3)n1 | ≥ 6.00
CS(=O)(=O)c1ccc(-n2nc(C(N)=O)c3c2-c2cc(N)ccc2CC3)cc1 | 5.00 to 6.00
COc1ccccc1C(=O)Nc1ccc2c(c1)-c1c(c(C(N)=O)nn1-c1ccc(S(N)(=O)=O)cc1)CC2 | 4.00 to 5.00
NC(=O)c1nn(-c2ccc(S(N)(=O)=O)cc2)c2c1CCc1ccc(NC(=O)c3ccccc3C(F)(F)F)cc1-2 | ≥ 6.00
NC(=O)c1nn(-c2ccc3c(c2)OCO3)c2c1CCc1ccc(NC(=O)c3cccc(O)n3)cc1-2 | 5.00 to 6.00
NC(=O)c1nn(-c2ccc(F)cc2)c2c1CCc1ccc(NC(=O)c3ccncc3)cc1-2 | 5.00 to 6.00

Structure (SMILES) | pIC50
NC(=O)c1nn(-c2ccc3c(c2)OCO3)c2c1CCc1ccc(NC(=O)c3ccccc3OC(F)(F)F)cc1-2 | 5.00 to 6.00
NC(=O)c1nn(-c2ccc(F)cc2)c2c1CCc1ccc(NC(=O)c3cc4c(cc3Cl)OCO4)cc1-2 | ≥ 6.00
COc1cccc(CC(=O)Nc2ccc3c(c2)-c2c(c(C(N)=O)nn2-c2ccc(S(N)(=O)=O)cc2)CC3)c1 | 5.00 to 6.00
COc1ccc([N+](=O)[O-])c(C(=O)Nc2ccc3c(c2)-c2c(c(C(N)=O)nn2-c2ccc4c(c2)OCO4)CC3)c1 | 5.00 to 6.00
CN1CCN(c2ccc(Cl)c(C(=O)Nc3ccc4c(c3)-c3c(c(C(N)=O)nn3-c3ccc5c(c3)OCO5)CC4)c2)CC1 | ≥ 6.00
NC(=O)c1nn(-c2ccc(S(N)(=O)=O)cc2)c2c1CCc1ccc(NC(=O)c3cccc(Br)c3)cc1-2 | ≥ 6.00
NC(=O)c1nn(-c2ccc3c(c2)OCO3)c2c1CCc1ccc(NC(=O)c3nc(Cl)ccc3Cl)cc1-2 | 5.00 to 6.00
NC(=O)c1nn(-c2ccc3c(c2)OCO3)c2c1CCc1ccc(NC(=O)c3cc[n+]([O-])cc3)cc1-2 | 5.00 to 6.00
COc1ccc(CNc2ncccc2C(=O)Nc2ccc3c(c2)-c2c(c(C(N)=O)nn2-c2ccc4c(c2)OCO4)CC3)cc1 | 4.00 to 5.00
NC(=O)c1nn(-c2ccc(S(N)(=O)=O)cc2)c2c1CCc1ccc(NC(=O)c3ccccc3OC(F)(F)F)cc1-2 | ≥ 6.00
NC(=O)c1nn(-c2ccc(S(N)(=O)=O)cc2)c2c1CCc1ccc(NC(=O)c3cccc(Cl)c3)cc1-2 | ≥ 6.00
CC(=O)c1ccc(C(=O)Nc2ccc3c(c2)-c2c(c(C(N)=O)nn2-c2ccc4c(c2)OCO4)CC3)cc1 | 5.00 to 6.00
Cc1ccccc1C(=O)Nc1ccc2c(c1)-c1c(c(C(N)=O)nn1-c1ccc(S(N)(=O)=O)cc1)CC2 | ≥ 6.00
NC(=O)c1nn(-c2ccc(S(N)(=O)=O)cc2)c2c1CCc1ccc(NC(=O)c3cccc(Cl)c3Cl)cc1-2 | ≥ 6.00
NC(=O)c1nn(-c2ccc3c(c2)OCO3)c2c1CCc1ccc(NC(=O)c3ccc(Cl)c(N)c3)cc1-2 | 5.00 to 6.00
NC(=O)c1nn(-c2ccc3c(c2)OCO3)c2c1CCc1ccc(NC(=O)c3cc(Cl)cnc3Cl)cc1-2 | ≥ 6.00
CS(=O)(=O)c1ccc(-n2nc(C(N)=O)c3c2-c2cc(NC(=O)c4ccccc4N)ccc2CC3)cc1 | 5.00 to 6.00
COc1cccc(C(=O)Nc2ccc3c(c2)-c2c(c(C(N)=O)nn2-c2ccc(S(N)(=O)=O)cc2)CC3)c1 | ≥ 6.00
NC(=O)c1nn(-c2ccc(S(N)(=O)=O)cc2)c2c1CCc1ccc(NC(=O)c3ccccc3Cl)cc1-2 | ≥ 6.00
CS(=O)(=O)c1ccc(-n2nc(C(N)=O)c3c2-c2cc(NC(=O)c4cn[nH]c4)ccc2CC3)cc1 | 5.00 to 6.00
NC(=O)c1nn(-c2ccc3c(c2)OCO3)c2c1CCc1ccc(NC(=O)c3cccnc3N)cc1-2 | 5.00 to 6.00
NC(=O)c1nn(-c2ccc3c(c2)OCO3)c2c1CCc1ccc(NC(=O)c3cc(N4CCNCC4)ncc3Cl)cc1-2 | ≥ 6.00
CN1CCN(c2cc(C(=O)Nc3ccc4c(c3)-c3c(c(C(N)=O)nn3-c3ccc5c(c3)OCO5)CC4)c(Cl)cn2)CC1 | ≥ 6.00
